Series [1] deals with Hep3B cells. Briefly: Hep3B cell proliferation (CellTiter-Glo, 72 hours). To be noted: Homo sapiens, Hep3B. The format is cell-based. As to the method:
1. Test method: inoculating Hep3B cells (ATCC) in logarithmic growth phase at an appropriate density in a 96-well culture plate, with 100 μL per well. After overnight culture, different concentrations of compounds were added to stay for 72 hours, and menstruum control group (negative control) was set, and the incubation was performed under the condition of 5% CO2 at 37° C. Adding 10 mM compound stock solution to the cells, after the cells were incubated with the compounds for 72 hours, the effects of the compounds on cell proliferation were determined by CellTiter-Glo (Promega) method. 30 μL CTG reagent was added to each well and the resulting mixtures were placed in a 37° C. incubator for 2-4 hours. Then the plate was read by a full-wavelength microplate enzyme reader Envision at a […].
The inhibition rates (%) of the compounds on tumor cell growth were calculated by the following formula: inhibition rate (%)=(OD negative control well−OD administration well)/OD negative control well×100%. IC50 values were obtained by four parameters regression using Graphpad Prism 5 software.

Series [2] is described as follows: ADME tests: liver microsome metabolic stability and direct inhibition test. The format is in vitro ADME. To be noted: metabolic stability, direct inhibition test. As to the method: (1) Metabolic stability test: 150 μL system of liver microsome (final concentration 0.5 mg/mL) was used for metabolic stability incubation, the system contained NADPH (final concentration 1 mM), 1 μM test compound and positive control Midazolam or negative control Atenolol, then the reaction was terminated with Tinidazole-containing acetonitrile at 0 min, 5 min, 10 min and 30 min respectively, and the mixtures were vortexed for 10 minutes and centrifuged for 10 minutes at 15000 rmp, 50 μL of the supernatants were added into 96-well plate for injection. The metabolic stability of the compounds was calculated by measuring the relative reduction of the original drug.
(2) Direct inhibition test (DI test): Direct inhibition incubation was carried out with 100 μL system of human liver microsome (final concentration 0.2 mg/mL), the system containing NADPH (final concentration 1 mM), 10 μM compound, positive inhibitor cocktail (Ketoconazole 10 μM, Quinidine 10 μM, Sulfaphenazolum 100 μM, α-Naphthoflavone 10 μM, Tranylcypromine 1000 μM), negative control (BPS containing 0.1% DMSO) and mixed probe substrates (Midazolam 10 μM, Testosterone 100 μM, Dextromethorphan […], Diclofenac 20 μM, Phenacetin 100 μM, Mephenytoin 100 μM) was incubated for 20 minutes and then the reaction was terminated. The relative activity of enzymes was calculated by measuring the relative production of metabolites.

In series [3] the test system is EGFR, VEGFR, PDGFR, FGFR, RET, MET, Src, Lyn, Syk, MEK, CDK, RA, ROS. Briefly: Inhibitory activities on different kinases (selectivity). It counts as biochemical. To be noted: versus different kinases. As to the method:
The inhibitory activities of the compounds of the present disclosure on different kinases such as EGFR, VEGFR, PDGFR, FGFR, RET, MET, Src, Lyn, Syk, MEK, CDK, RA, ROS, etc., were also determined.

A short description of series [4]: Pharmacokinetics in rats or mice after intragastric and intravenous administration. The format is in vivo, SD rats or BALB/c mice. To be noted: iv 3 mg/kg, intragastric 10 mg/kg. As to the method:
(3) LC/MS/MS method was used to measure the drug concentration in plasma at different time points after the embodiment compounds were administered to the rats or mice by intragastric administration and intravenous injection respectively, so as to study the pharmacokinetic behavior of the compounds of the present disclosure in rats or mice and evaluate the pharmacokinetic characteristics thereof. […]

Series [5] deals with FGFR1 (Homo sapiens (Human), UniProt P11362). Briefly: Inhibitory activity on kinase FGFR1 (Caliper mobility shift). It counts as biochemical. As to the method:
(1). Preparation of 1×Kinase buffer; (2) Preparation of the gradient concentrations of the compounds: the concentration of the compounds to be tested started from 10 μM, which was 3-fold diluted to prepare 10 dilutions, and then tested in duplicated wells. The compounds were 100-fold serially diluted into 10 dilutions with different final concentrations in 96-well plates, each of which was further diluted with 1×Kinase buffer to prepare an intermediate dilution having a concentration of 5 times the final concentration; (3) adding 5 μL of each of the prepared compound solution into the compound wells of 384-well plates, and each concentration set single well; adding 5 μL of 5% DMSO into negative control wells and positive control wells respectively; (4) preparing a kinase solution having a concentration of 2.5 times the final concentration with 1×kinase buffer; (5) adding 10 μL of kinase solution at a concentration of 2.5 times the final concentration into the compound wells and the positive control wells respectively; and adding 10 μL of 1×Kinase buffer into the negative control wells; (6) centrifuging at 1000 rpm for 30 seconds, and incubating at room temperature for 10 minutes after shaking and mixing evenly; (7) preparing a mixed solution of ATP and Kinase substrate 22 having a concentration of 2.5 times the final concentration with 1×Kinase Buffer; (8) adding 10 μL of the mixed solution of ATP and substrate at a concentration of 2.5 times the final concentration to initiate the reaction; (9) Centrifuging the 384-well plates at 1000 rpm for 30 seconds, and incubating at 28° C. for corresponding time respectively after shaking and mixing; (10) adding 30 μL of stop detection solution to stop the kinase reaction, centrifuging at 1000 rpm for 30 seconds, and shaking and mixing the mixture evenly; (11) reading the conversion rate by Caliper Ezreader II. The dose-effect curve was fitted by the log (inhibitor) vs. response-variable slope of GraphPad Prism 5 with the log value of concentration as the X axis and the percentage inhibition rate as the Y axis, then the IC50 value of each compound on the enzyme activity was obtained.

pIC50: −log10 of the molar value. Where two headings read alike, the source gives them in different places.

Sequence of FGFR1 (P11362 22-822): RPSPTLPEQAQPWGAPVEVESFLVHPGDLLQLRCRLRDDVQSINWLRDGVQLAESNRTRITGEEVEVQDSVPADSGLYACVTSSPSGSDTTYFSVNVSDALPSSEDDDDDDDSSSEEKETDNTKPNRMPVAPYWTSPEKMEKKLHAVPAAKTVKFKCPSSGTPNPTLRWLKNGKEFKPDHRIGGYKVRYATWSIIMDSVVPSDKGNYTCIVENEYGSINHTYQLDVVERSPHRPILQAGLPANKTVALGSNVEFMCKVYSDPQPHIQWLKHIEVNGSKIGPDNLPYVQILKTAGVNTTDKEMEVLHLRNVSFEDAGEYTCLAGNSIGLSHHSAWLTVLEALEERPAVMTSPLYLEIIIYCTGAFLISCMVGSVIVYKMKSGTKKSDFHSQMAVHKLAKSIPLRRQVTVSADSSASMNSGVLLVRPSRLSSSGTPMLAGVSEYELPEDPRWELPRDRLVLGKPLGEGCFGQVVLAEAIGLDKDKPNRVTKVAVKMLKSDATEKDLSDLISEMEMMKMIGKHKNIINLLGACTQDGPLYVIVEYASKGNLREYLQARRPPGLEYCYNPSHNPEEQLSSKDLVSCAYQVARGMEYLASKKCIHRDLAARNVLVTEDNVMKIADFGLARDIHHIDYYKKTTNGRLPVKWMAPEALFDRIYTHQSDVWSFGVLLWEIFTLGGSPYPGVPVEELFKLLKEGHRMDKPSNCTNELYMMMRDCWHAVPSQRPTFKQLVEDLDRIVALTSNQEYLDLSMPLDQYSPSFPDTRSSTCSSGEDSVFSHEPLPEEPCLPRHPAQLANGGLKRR

On to `C=CC(=O)N1CCN(CCCc2cn3c(n2)c(-c2c(Cl)c(OC)cc(OC)c2Cl)cc2cnc(NC)nc23)CC1` [Embodiment 3, 1-(4-(3-(6-(2,6-dichloro-3,5-dimethoxyaniline)-2-(methylamine)imidazo[1′,2′:1,6]pyrido[2,3-d]pyrimidin-8-yl)propyl)piperazine-1-yl)prop-2-en-1-one], for which the pIC50 is more than 7.70 in series [1] (read-out: Hep3B IC50), more than 8.00 in series [1] (read-out: Hep3B cells inhibitory activity IC50), more than 7.70 in series [5] (read-out: FGFR1 IC50) and more than 9.00 in series [5] (read-out: IC50 of inhibitory activity on FGFR1). Besides, the ADME properties entry in series [2] is reported as “better ADME properties”. Besides, the kinase selectivity result in series [3] is on record as “greater than 100 times”. Further, in series [4], the “absorption and metabolism properties in rats and mice” value is “good absorption and metabolism properties in rats and mice”.
